For the first assay, the system named is SARS-CoV-2 strain USA-WA1/2020. Kind of assay: microbe, parasite or virus in culture. It counts as cell-based. As to conditions: Severe acute respiratory syndrome coronavirus 2, HeLa-ACE2, 24 h, HeLa-ACE2 cells, SARS-CoV-2 infection, 24 h; bound printed in cell; read-out: EC50, uM (Hela).
As to `O=C(Nc1ccccc1F)C(=O)NC1(C(=O)N[C@@H](C[C@@H]2CCNC2=O)C(=O)COC(F)(F)F)CCOCC1` [Compound 257, N1-(2-fluorophenyl)-N2-(4-(((S)-3-oxo-1-((S)-2-oxopyrrolidin-3-yl)-4-(trifluoromethoxy)butan-2-yl)carbamoyl)-tetrahydro-2H-pyran-4-yl)oxalamide], the EC50 – broadly, the concentration at which the effect is half-maximal – is more than 1 µM.
Consider `CO[C@@H]1C[C@@H](C(=O)N[C@@H](C[C@@H]2CCNC2=O)C(=O)COC(F)(F)F)N(C(=O)C(=O)Nc2ccccc2F)C1` [Compound 258, (2S,4R)-1-(2-((2-fluorophenyl)amino)-2-oxoacetyl)-4-methoxy-N-((S)-3-oxo-1-((S)-2-oxopyrrolidin-3-yl)-4-(trifluoromethoxy)butan-2-yl)pyrrolidine-2-carboxamide], for which the concentration giving a half-maximal response (EC50) is more than 1 µM.
`C=C[C@@H]1C[C@]1(NC(=O)c1cc2cc(F)ccc2[nH]1)C(=O)N[C@@H](C[C@@H]1CCNC1=O)C(=O)COC(F)(F)F` [Compound 259, 5-fluoro-N-((1R,2S)-1-(((S)-3-oxo-1-((S)-2-oxopyrrolidin-3-yl)-4-(trifluoromethoxy)butan-2-yl)carbamoyl)-2-vinylcyclopropyl)-1H-indole-2-carboxamide]: the EC50 was more than 1 µM.

The assay is the same for the next values; noted with them: Severe acute respiratory syndrome coronavirus 2, HeLa-ACE2, 24 h, HeLa-ACE2 cells, SARS-CoV-2 infection, 24 h; class symbols; read-out: EC50, uM (Hela).
`CC(C)C[C@H](NC(=O)C(=O)NC1CC2(COC2)C1)C(=O)N[C@@H](C[C@@H]1CCNC1=O)C(=O)COC(F)(F)F` [Compound 240, N1-((S)-4-methyl-1-oxo-1-(((S)-3-oxo-1-((S)-2-oxopyrrolidin-3-yl)-4-(trifluoromethoxy)butan-2-yl)amino)pentan-2-yl)-N2-(2-oxaspiro[3.3]heptan-6-yl)oxalamide]: the EC50 is 0.05 to 0.2 µM.
The same measure, in the same setting: then `CC(C)C[C@H](NC(=O)C(=O)NC1CC2(C1)CC(F)(F)C2)C(=O)N[C@@H](C[C@@H]1CCNC1=O)C(=O)COC(F)(F)F` [Compound 241, N1-(6,6-difluorospiro-[3.3]heptan-2-yl)-N2-((S)-4-methyl-1-oxo-1-(((S)-3-oxo-1-((S)-2-oxopyrrolidin-3-yl)-4-(trifluoromethoxy)butan-2-yl)amino)pentan-2-yl)oxalamide], with less than 0.05 µM; and `COc1cccc(NC(=O)C(=O)N[C@@H](Cc2cccc(F)c2)C(=O)N[C@@H](C[C@@H]2CCNC2=O)C(=O)COC(F)(F)F)c1` [Compound 242, N1-((S)-3-(3-fluorophenyl)-1-oxo-1-(((S)-3-oxo-1-((S)-2-oxopyrrolidin-3-yl)-4-(trifluoromethoxy)butan-2-yl)amino)propan-2-yl)-N2-(3-methoxy-phenyl)oxalamide], with less than 0.05 µM; and `O=C(Nc1ccccc1F)C(=O)N[C@@H](Cc1cccc(F)c1)C(=O)N[C@@H](C[C@@H]1CCNC1=O)C(=O)COC(F)(F)F` [Compound 243, N1-(2-fluorophenyl)-N2-((S)-3-(3-fluorophenyl)-1-oxo-1-(((S)-3-oxo-1-((S)-2-oxopyrrolidin-3-yl)-4-(trifluoromethoxy)butan-2-yl)amino)propan-2-yl)oxalamide], with less than 0.05 µM.
Take `CC(C)C[C@H](NC(=O)C(=O)NC1COC1)C(=O)N[C@@H](C[C@@H]1CCNC1=O)C(=O)COC(F)(F)F` [Compound 244, N1-((S)-4-methyl-1-oxo-1-(((S)-3-oxo-1-((S)-2-oxopyrrolidin-3-yl)-4-(trifluoromethoxy)butan-2-yl)amino)pentan-2-yl)-N2-(oxetan-3-yl)oxalamide]: the 50% effective concentration (EC50) was in the range of 0.05 to 0.2 µM.
`CC(C)C[C@H](NC(=O)C(=O)NC1(C)CC1)C(=O)N[C@@H](C[C@@H]1CCCNC1=O)C(=O)COC(F)(F)F` [Compound 245, N1-((S)-4-methyl-1-oxo-1-(((S)-3-oxo-1-((S)-2-oxopiperidin-3-yl)-4-(trifluoromethoxy)butan-2-yl)amino)pentan-2-yl)-N2-(1-methylcyclo-propyl)oxalamide]: the EC50 is less than 0.05 µM.
Regarding `CC(C)C[C@H](NC(=O)C(=O)NC(C)(C)C(F)F)C(=O)N[C@@H](C[C@@H]1CCNC1=O)C(=O)COC(F)(F)F` [Compound 246, N1-(1,1-difluoro-2-methylpropan-2-yl)-N2-((S)-4-methyl-1-oxo-1-(((S)-3-oxo-1-((S)-2-oxopyrrolidin-3-yl)-4-(trifluoromethoxy)butan-2-yl)amino)pentan-2-yl)oxalamide], the EC50 was less than 0.05 µM.
`CC(C)C[C@H](NC(=O)C1COCCO1)C(=O)N[C@@H](C[C@@H]1CCNC1=O)C(=O)COC(F)(F)F` (stereo partly drawn) [Compound 247, N-((S)-4-methyl-1-oxo-1-(((S)-3-oxo-1-((S)-2-oxopyrrolidin-3-yl)-4-(trifluoromethoxy)butan-2-yl)amino)pentan-2-yl)-1,4-dioxane-2-carboxamide]: the EC50 lay in the range of 0.05 to 0.2 µM.
As for `CC(C)C[C@H](NC(=O)c1cc2ncccc2[nH]1)C(=O)N[C@@H](C[C@@H]1CCNC1=O)C(=O)COC(F)(F)F` [Compound 248, N-((S)-4-methyl-1-oxo-1-(((S)-3-oxo-1-((S)-2-oxopyrrolidin-3-yl)-4-(trifluoromethoxy)butan-2-yl)amino)pentan-2-yl)-1H-pyrrolo[3,2-b]pyridine-2-carboxamide], the EC50 was in the range of 0.2 to 0.5 µM.
Take `CC(C)C[C@H](NC(=O)c1c[nH]c2ncccc12)C(=O)N[C@@H](C[C@@H]1CCNC1=O)C(=O)COC(F)(F)F` [Compound 249, N-((S)-4-methyl-1-oxo-1-(((S)-3-oxo-1-((S)-2-oxopyrrolidin-3-yl)-4-(trifluoromethoxy)butan-2-yl)amino)pentan-2-yl)-1H-pyrrolo[2,3-b]pyridine-3-carboxamide]: the EC50 is 0.2 to 0.5 µM.
As for `CC1(NC(=O)C(=O)N[C@@H](Cc2ccc(F)cc2)C(=O)N[C@@H](C[C@@H]2CCNC2=O)C(=O)COC(F)(F)F)CC1` [Compound 250, N1-((S)-3-(4-fluorophenyl)-1-oxo-1-(((S)-3-oxo-1-((S)-2-oxopyrrolidin-3-yl)-4-(trifluoromethoxy)butan-2-yl)amino)propan-2-yl)-N2-(1-methylcyclopropyl)-oxalamide], the half-maximal effective concentration (EC50) was less than 0.05 µM.
With `CC(C)C[C@H](NC(=O)C(=O)NC12CCC(F)(CC1)CC2)C(=O)N[C@@H](C[C@@H]1CCNC1=O)C(=O)COC(F)(F)F` [Compound 251, N1-(4-fluorobicyclo-[2.2.2]octan-1-yl)-N2-((S)-4-methyl-1-oxo-1-(((S)-3-oxo-1-((S)-2-oxopyrrolidin-3-yl)-4-(trifluoromethoxy)butan-2-yl)amino)pentan-2-yl)oxalamide], the concentration for a half-maximal effect (EC50) is less than 0.05 µM.
Still for that read-out and setting: the same measure for `CC(C)C[C@H](NC(=O)C(=O)NC1(C)CCNC1)C(=O)N[C@@H](C[C@@H]1CCNC1=O)C(=O)COC(F)(F)F` (stereo partly drawn) [Compound 252, N1-((S)-4-methyl-1-oxo-1-(((S)-3-oxo-1-((S)-2-oxopyrrolidin-3-yl)-4-(trifluoromethoxy)butan-2-yl)amino)pentan-2-yl)-N2-(3-methylpyrrolidin-3-yl)oxalamide]: 0.2 to 0.5 µM; for `CC(C)C[C@H](NC(=O)C(=O)NC1(CF)CC1)C(=O)N[C@@H](C[C@@H]1CCNC1=O)C(=O)COC(F)(F)F` [Compound 254, Nl-(l-(fluoromethyl)-cyclopropyl)-N2-((S)-4-methyl-1-oxo-1-(((S)-3-oxo-1-((S)-2-oxopyrrolidin-3-yl)-4-(trifluoromethoxy)butan-2-yl)amino)pentan-2-yl)oxalamide]: less than 0.05 µM; for `COc1cccc2c1OC(C(=O)N[C@@H](CC(C)C)C(=O)N[C@@H](C[C@@H]1CCNC1=O)C(=O)COC(F)(F)F)C2` (stereo partly drawn) [Compound 255, 7-methoxy-N-((S)-4-methyl-1-oxo-1-(((S)-3-oxo-1-((S)-2-oxopyrrolidin-3-yl)-4-(trifluoromethoxy)butan-2-yl)amino)pentan-2-yl)-2,3-dihydrobenzofuran-2-carboxamide]: less than 0.05 µM.
On the same count and under the same terms, then `O=C(Nc1ccccc1F)C(=O)N1C[C@@H]2CCC[C@@H]2[C@H]1C(=O)N[C@@H](C[C@@H]1CCNC1=O)C(=O)COC(F)(F)F` [Compound 256, (1S,3aR,6aS)-2-(2-((2-fluorophenyl)amino)-2-oxoacetyl)-N—((S)-3-oxo-1-((S)-2-oxopyrrolidin-3-yl)-4-(trifluoromethoxy)butan-2-yl)octahydrocyclopenta[c]pyrrole-1-carboxamide], with less than 0.05 µM; and `CC[C@@H]1C[C@]1(NC(=O)c1cc2cc(F)ccc2[nH]1)C(=O)N[C@@H](C[C@@H]1CCNC1=O)C(=O)COC(F)(F)F` [Compound 261, N-((1R,2R)-2-ethyl-1-(((S)-3-oxo-1-((S)-2-oxopyrrolidin-3-yl)-4-(trifluoromethoxy)butan-2-yl)carbamoyl)cyclopropyl)-5-fluoro-1H-indole-2-carboxamide], with 0.5 to 1 µM; and `COCC1(NC(=O)C(=O)N[C@@H](CC(C)C)C(=O)N[C@@H](C[C@@H]2CCNC2=O)C(=O)COC(F)(F)F)CC1` [Compound 262, Nl-(1-(methoxymethyl)-cyclopropyl)-N2-((S)-4-methyl-1-oxo-1-(((S)-3-oxo-1-((S)-2-oxopyrrolidin-3-yl)-4-(trifluoromethoxy)butan-2-yl)amino)pentan-2-yl)oxalamide], with 0.05 to 0.2 µM.
On to `CC(C)C[C@H](NC(=O)c1c[nH]c2cccnc12)C(=O)N[C@@H](C[C@@H]1CCNC1=O)C(=O)COC(F)(F)F` [Compound 263, N-((S)-4-methyl-1-oxo-1-(((S)-3-oxo-1-((S)-2-oxopyrrolidin-3-yl)-4-(trifluoromethoxy)butan-2-yl)amino)pentan-2-yl)-1H-pyrrolo[3,2-b]pyridine-3-carboxamide], for which the EC50 was 0.2 to 0.5 µM.

Staying with this assay, now noted: Severe acute respiratory syndrome coronavirus 2, HeLa-ACE2, 24 h; read-out: EC50, uM (Hela).
As for `CC(C)(C)[C@H](NC(=O)C(F)(F)F)C(=O)N1C[C@H]2[C@@H]([C@H]1C(=O)N[C@@H](C[C@@H]1CCNC1=O)C(=O)COC(F)(F)F)C2(C)C` [Compound 264, (1R,2S,5S)-3-((S)-3,3-dimethyl-2-(2,2,2-trifluoroacetamido)butanoyl)-6,6-dimethyl-N—((S)-3-oxo-1-((S)-2-oxopyrrolidin-3-yl)-4-(trifluoromethoxy)butan-2-yl)-3-azabicyclo[3.1.0]hexane-2-carboxamide], the EC50 is less than 0.05 µM.

These data come from patent US11708348B2, “Protease inhibitors for treatment of coronavirus infections” (The Scripps Research Institute, priority 2021, dated 2023).
